Among the data in article PMC6152377, “Structure-Activity Relationships of Acyclic Selenopurine Nucleosides as Antiviral Agents” (Molecules : A Journal of Synthetic Chemistry and Natural …, 2017) are EC50, CC50 and melting point values, retold here.

The structures appear in SMILES notation. Read-outs that look alike come from different tables or passages of the source.

Data set [1] concerns HCMV (Davis, VR-807). The data set is described as follows: CPE inhibition antiviral assay, HCMV. In kind it is cell-based, human cytomegalovirus (HCMV). The conditions noted are these: Human betaherpesvirus 5; inhibition of virus-induced cytopathic effect by 50%; strain Davis; MTT readout. Here is the method: (§1) All the final compounds 3a–f and 4a–g were assayed for their antiviral activity against several herpes viruses such as HSV-1 (strain F, VR-733), HSV-2 (strain MS, VR-540), VZV (Ellen, VR-1367), and HCMV (Davis, VR-807). Cytotoxicity data were measured in HEL299 (CCL-137) cells as described previously. […] Antiviral activity was measured using a standard cytopathic (CPE) inhibition assay as described before. Briefly, Vero cells in stationary phase were infected with the virus at a multiplicity of infection of 2–4 CCID50 (50% cell culture inhibitory dose) per each well of 96-well plates. After 2 h of adsorption at 37 °C, the liquid was aspirated and 100 μL of Dulbeco’s modified eagle’s media (DMEM)/2% fetal bovine serum (FBS) containing a compound was applied to each well in duplicate for each concentration and further incubated for 3 days. Antiviral activity was measured by MTT assay and expressed as the EC50. Cytocidal assay was performed as a control experiment for the antiviral assay. It was carried out simultaneously with the antiviral assay described above using mock instead of virus for infection, and cell viability was measured by MTT assay. The concentration of the compound responsible for 50% reduction of cell growth was calculated and expressed as CC50.

Data set [2] deals with HSV-2 (strain MS, VR-540). The data set is described as follows: CPE inhibition antiviral assay, HSV-2. The data set is classed as cell-based. The conditions noted are these: Human alphaherpesvirus 2, 72 h, inhibition of virus-induced cytopathic effect by 50%, MTT readout, 3 days. The protocol:
as §1
(Damage to the host cells serves as the signal in cytopathic effect assays.)

In data set [3] the test system is HSV-1 (strain F, VR-733). In words: CPE inhibition antiviral assay, HSV-1. In kind it is cell-based, herpes simplex virus (HSV)-1. The conditions noted are these: Human alphaherpesvirus 1, 72 h, inhibition of virus-induced cytopathic effect by 50%, MTT readout, 3 days. Here is the method:
as §1

The test system of data set [4] is VZV (Ellen, VR-1367). In words: CPE inhibition antiviral assay, VZV. In kind it is cell-based, varicella-zoster virus (VZV). The conditions noted are these: Human alphaherpesvirus 3; inhibition of virus-induced cytopathic effect by 50%; strain Ellen; MTT readout. The protocol: as §1
Data set [5] in a line: Cytotoxicity (cytocidal) assay, MTT. The data set is classed as cell-based. The conditions noted are these: human, 50% reduction of cell viability, mock infection. Here is the method:
as §1

The test system of a further data set is HEL299 (CCL-137) cells. Particulars: read-out: CC50 HEL299, 50% reduction of cell viability, ref [11]; cited from earlier work.
The test system of data set [6] is HCMV (Davis, VR-807). Details: method as in PMID 20466277. Particulars: inhibition of virus-induced cytopathic effect by 50%; strain Davis; ref [11]; cited from earlier work.
Data set [7] deals with HSV-2 (strain MS, VR-540). Also noted: method as in PMID 20466277. Particulars: inhibition of virus-induced cytopathic effect by 50%, ref [11]; cited from earlier work.
Data set [8] relates to VZV (Ellen, VR-1367). Details: method as in PMID 20466277. Particulars: inhibition of virus-induced cytopathic effect by 50%; strain Ellen; ref [11]; cited from earlier work.
Data set [9] has as its system HSV-1 (strain F, VR-733). Also noted: method as in PMID 20466277. The conditions noted are these: inhibition of virus-induced cytopathic effect by 50%, ref [11]; cited from earlier work.

Regarding `Nc1nc2c(ncn2COCCO)c(=O)[nH]1` [Compound 1, acyclovir, reference compound], the EC50 is 18.9 µM in the data set on HCMV (Davis, VR-807) [1]; 1.02 µM in data set [2]; 0.66 µM with HSV-1 (strain F, VR-733) [3]; 6.4 µM in the data set on VZV (Ellen, VR-1367) [4].
Regarding `Nc1nc(O)c2ncn(COC(CO)CO)c2n1` [Compound 2, ganciclovir, reference compound], the EC50 in the data set on HCMV (Davis, VR-807) [1] stood at 2.14 µM; in [2] it was 1.4 µM; with HSV-1 (strain F, VR-733) [3], 0.9 µM; in the data set on VZV (Ellen, VR-1367) [4], 11.1 µM. For the same compound, in [5] (HEL299 (CCL-137) cells, mock-infected), the CC50 at 3 days was above 100 µM.
The compound `O=c1[nH]cnc2c1ncn2C[Se]CCO` [Compound 3a, 9-((2-Hydroxyethylselanyl)methyl)-1H-purin-6-(9H)-one] had a melting point of 225 to 227 °C. In the data set on HCMV (Davis, VR-807) [1], this compound showed an EC50 above 100 µM. Besides, the CC50 at 3 days in [5] (HEL299 cells) is above 100 µM. Further, the EC50 in data set [2] is above 100 µM. The same compound yielded a 50% effective concentration (EC50) in the data set with HSV-1 (strain F, VR-733) [3] above 100 µM. In the data set on VZV (Ellen, VR-1367) [4], this compound displayed an EC50 above 100 µM.
Compound `CNc1ncnc2c1ncn2C[Se]CCO` [Compound 3b, 2-((6-(Methylamino)-9H-purin-9-yl)methylselanyl) ethanol] came in with a melting point of 171 to 173 °C. The 50% effective concentration (EC50) in the data set with HCMV (Davis, VR-807) [1] was above 100 µM. The compound also displayed a CC50 at 3 days in data set [5] (HEL299 cells) above 100 µM. The compound also showed an EC50 in data set [2] above 100 µM. In the data set on HSV-1 (strain F, VR-733) [3], this compound returned an EC50 above 100 µM. In the data set on VZV (Ellen, VR-1367) [4], the EC50 was above 100 µM.
As for `Nc1ncnc2c1ncn2C[Se]CCO` [Compound 3c, 2-((6-Amino-9H-purin-9-yl)methylselanyl)ethanol], the melting point lay within 175 to 177 °C. For the same compound, the concentration giving a half-maximal response (EC50) with HCMV (Davis, VR-807) [1] was above 100 µM. In [5] (HEL299 cells), this compound came in with a cytotoxic concentration (CC50) at 3 days above 100 µM. Also, the EC50 in [2] was above 100 µM. Also, the 50% effective concentration (EC50) with HSV-1 (strain F, VR-733) [3] is above 100 µM. In the data set with VZV (Ellen, VR-1367) [4], the EC50 is above 100 µM.
In the case of `O=c1[nH]cnc2c1ncn2C[Se]C(CO)CO` [Compound 3d, 9-((1,3-Dihydroxypropan-2-ylselanyl)methyl)-1H purin-6(9H)-one], the EC50 is above 100 µM in the data set with HCMV (Davis, VR-807) [1]; above 100 µM in [2]; above 100 µM in the data set on HSV-1 (strain F, VR-733) [3]; above 100 µM in the data set on VZV (Ellen, VR-1367) [4]. Moreover, the cytotoxic concentration (CC50) at 3 days in [5] (HEL299 cells) is above 100 µM.
`CNc1ncnc2c1ncn2C[Se]C(CO)CO` [Compound 3e, 2-((6-(Methylamino)-9H-purin-9-yl)methylselanyl)propane-1,3-diol] showed a melting point of 180 to 183 °C. In the data set on HCMV (Davis, VR-807) [1], this compound displayed an EC50 above 100 µM. For the same compound, the cytotoxic concentration (CC50) at 3 days in data set [5] (HEL299 cells) was above 100 µM. This compound also registered an EC50 in [2] above 100 µM. This compound displayed an EC50 with HSV-1 (strain F, VR-733) [3] above 100 µM. The same compound registered a half-maximal effective concentration (EC50) in the data set on VZV (Ellen, VR-1367) [4] above 100 µM.
In the case of `Nc1ncnc2c1ncn2C[Se]C(CO)CO` [Compound 3f, 2-((6-Amino-9H-purin-9-yl)methylselanyl)propane-1,3-diol], the melting point lay within 186 to 188 °C. The same compound came in with an EC50 in the data set with HCMV (Davis, VR-807) [1] of 65.2 µM. This compound registered a CC50 at 3 days in data set [5] (HEL299 cells) above 100 µM. In data set [2], this compound registered an EC50 above 100 µM. The EC50 in the data set on HSV-1 (strain F, VR-733) [3] was above 100 µM. Besides, in the data set on VZV (Ellen, VR-1367) [4], the half-maximal effective concentration (EC50) was above 100 µM.
On to `Nc1nc2c(ncn2C[Se]CCO)c(=O)[nH]1` [Compound 4a, 9-((2-Hydroxyethylselanyl)methyl)-2-amino-1H purin-6(9H)-one], for which the CC50 with HEL299 (CCL-137) cells was above 100 µM. Also, the concentration giving a half-maximal response (EC50) in the data set with HCMV (Davis, VR-807) [6] is above 100 µM; in data set [7], 6.34 µM; in the data set on VZV (Ellen, VR-1367) [8] it was above 100 µM; in the data set on HSV-1 (strain F, VR-733) [9], 1.47 µM.
Compound `CNc1nc(N)nc2c1ncn2C[Se]CCO` [Compound 4b, 2-((2-Amino-6-(methylamino)-9H-purin-9-yl)methylselanyl) ethanol] yielded a melting point of 183 to 185 °C. The EC50 with HCMV (Davis, VR-807) [1] was above 100 µM. For the same compound, the CC50 at 3 days in data set [5] (HEL299 cells) is above 100 µM. The compound further yielded an EC50 in data set [2] of 17.6 µM. This compound displayed an EC50 with HSV-1 (strain F, VR-733) [3] of 14.3 µM. In the data set on VZV (Ellen, VR-1367) [4], the EC50 is above 100 µM.
As for `Nc1nc(N)c2ncn(C[Se]CCO)c2n1` [Compound 4c, 2-((2,6-Diamino-9H-purin-9-yl)methylselanyl) ethanol], the melting point lay within 84 to 86 °C. The compound also had an EC50 in the data set on HCMV (Davis, VR-807) [1] above 100 µM. In data set [5] (HEL299 cells), this compound displayed a CC50 at 3 days above 100 µM. In data set [2], this compound displayed an EC50 of 23.2 µM. A half-maximal effect with HSV-1 (strain F, VR-733) [3] (EC50) was put at 15.4 µM. The 50% effective concentration (EC50) in the data set on VZV (Ellen, VR-1367) [4] is above 100 µM.
Take `Nc1nc2c(ncn2C[Se]C(CO)CO)c(=O)[nH]1` [Compound 4d, 9-((1,3-Dihydroxypropan-2-ylselanyl)methyl)-2-amino-1H-purin-6(9H)-one]: the CC50 in the data set on HEL299 (CCL-137) cells is above 100 µM. For the same compound, the EC50 with HCMV (Davis, VR-807) [6] was 53.1 µM; in [7], above 100 µM; in the data set with VZV (Ellen, VR-1367) [8], above 100 µM; in the data set with HSV-1 (strain F, VR-733) [9], above 100 µM.
As to `CNc1nc(N)nc2c1ncn2C[Se]C(CO)CO` [Compound 4e, 2-((2-Amino-6-(methylamio)-9H-purin-9-yl)methylselanyl) propane-1,3-diol], the melting point fell in the range of 140 to 143 °C. Further, the EC50 with HCMV (Davis, VR-807) [1] worked out at 32.1 µM. Moreover, in data set [5] (HEL299 cells), the CC50 at 3 days is above 100 µM. This compound also had a half-maximal effective concentration (EC50) in data set [2] above 100 µM. The 50% effective concentration (EC50) in the data set with HSV-1 (strain F, VR-733) [3] was above 100 µM. This compound displayed an EC50 in the data set on VZV (Ellen, VR-1367) [4] above 100 µM.
For `Nc1nc(N)c2ncn(C[Se]C(CO)CO)c2n1` [Compound 4f, 2-((2,6-Diamino-9H-purin-9-yl)methylselanyl)propane-1,3-diol], the melting point was in the range of 193 to 196 °C. The EC50 in the data set with HCMV (Davis, VR-807) [1] came to 34.3 µM. Further, in [5] (HEL299 cells), the half-maximal cytotoxic concentration (CC50) at 3 days is above 100 µM. In [2], this compound returned an EC50 above 100 µM. The compound also showed a half-maximal effective concentration (EC50) in the data set on HSV-1 (strain F, VR-733) [3] above 100 µM. In addition, in the data set on VZV (Ellen, VR-1367) [4], the concentration for a half-maximal effect (EC50) is above 100 µM.
Take `Nc1nc(NC2CC2)c2ncn(C[Se]C(CO)CO)c2n1` [Compound 4g, 2-((2-Amino-6-(cyclopropylamino)-9H-purin-9-yl)methylselanyl)propane-1,3-diol]: the EC50 in the data set on HCMV (Davis, VR-807) [1] was 41.1 µM; in [2], above 100 µM; in the data set with HSV-1 (strain F, VR-733) [3], above 100 µM; with VZV (Ellen, VR-1367) [4], above 100 µM. The CC50 at 3 days in data set [5] (HEL299 cells) is above 100 µM.

A word on the EC50: it is the concentration at which the effect is half-maximal. The CC50 is the concentration that lowers cell viability or growth by half. A word on the melting point: it is the temperature, or range, at which the solid turns liquid.
